Data as given in patent publication US20200255478A1, “NOVEL COMPOUNDS ACTIVATING THE NRF2 PATHWAY” (Almirall, S.A., priority 2017, published 2020).
Starred links: 1 amine or outer side, 2 acyl side, 3 side chain; linkers in the order of their positions; H or OH if unused. Positions of bridges follow the written chain, without caps; N, C: chain ends. Residues, ends and D or L forms follow the SMILES beside them. *: point of attachment. mXylylene = c1cc(C[*:1])cc(C[*:2])c1; X2 = c1ccc2cc(C[*:2])c(C[*:1])cc2c1; X6 = c1ccc2nc(C[*:2])c(C[*:1])nc2c1; Stearoyl = CCCCCCCCCCCCCCCCCC(=O)*; βAla = NCCC(=O)O

target: Keap1-Maltose Binding Protein (MBP tag) (Homo sapiens, UniProt Q14145); test: Nrf2-Keap1 HTRF (TR-FRET) binding assay: displacement of biotinylated ETGE peptide from Keap1-MBP; details: HTRF (TR-FRET); displacement of ETGE-biotin from Keap1-MBP; values banded into grades; read-out: Binding (IC50) ETGE-Keap1
Sequence (Q14145 whole entry): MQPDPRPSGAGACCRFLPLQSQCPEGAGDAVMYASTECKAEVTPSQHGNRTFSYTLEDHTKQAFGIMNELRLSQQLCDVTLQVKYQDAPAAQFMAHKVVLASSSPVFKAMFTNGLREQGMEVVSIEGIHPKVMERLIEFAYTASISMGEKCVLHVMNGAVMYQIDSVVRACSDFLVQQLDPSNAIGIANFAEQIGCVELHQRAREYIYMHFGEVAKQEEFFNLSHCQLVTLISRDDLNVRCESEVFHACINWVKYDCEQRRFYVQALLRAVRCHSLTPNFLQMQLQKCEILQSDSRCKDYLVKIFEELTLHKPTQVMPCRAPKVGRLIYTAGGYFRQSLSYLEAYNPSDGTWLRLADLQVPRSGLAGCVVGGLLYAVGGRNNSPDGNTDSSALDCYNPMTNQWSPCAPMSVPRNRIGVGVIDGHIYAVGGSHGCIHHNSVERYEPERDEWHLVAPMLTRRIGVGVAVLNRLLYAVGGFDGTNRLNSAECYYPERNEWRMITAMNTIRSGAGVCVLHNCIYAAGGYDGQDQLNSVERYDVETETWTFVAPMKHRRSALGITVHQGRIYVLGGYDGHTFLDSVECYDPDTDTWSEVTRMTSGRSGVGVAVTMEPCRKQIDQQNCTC

SMILES	IC50 [nM]
CC(C)C[C@H](NC(=O)[C@@H]1CSCc2ccccc2CSC[C@H](NC(=O)[C@H](CCC(N)=O)NC(=O)[C@@H](N)CC(C)C)C(=O)N[C@@H](CC(=O)O)C(=O)N[C@@H](Cc2ccc(F)cc2)C(=O)N[C@@H](CCC(=O)O)C(=O)N[C@@H]([C@@H](C)O)C(=O)NCC(=O)N[C@@H](CCC(=O)O)C(=O)N1)C(=O)N1CCC[C@H]1C(=O)NCCC(=O)N[C@@H](CCCNC(=N)N)C(=O)N[C@@H](CCCCN)C(=O)N[C@@H](CCCCN)C(=O)N[C@@H](CCCNC(=N)N)C(=O)N[C@@H](CCCNC(=N)N)C(=O)N[C@@H](CCC(N)=O)C(=O)N[C@@H](CCCNC(=N)N)C(=O)N[C@@H](CCCNC(=N)N)C(=O)N[C@@H](CCCNC(=N)N)C(N)=O [Example 71]	1 to 100
CCCCCCCCCCCCCCCCCC(=O)NCCC(=O)N[C@@H](CC(C)C)C(=O)N[C@@H](CCC(N)=O)C(=O)N[C@H]1CSCc2cc3ccccc3cc2CSC[C@@H](C(=O)N[C@@H](CC(C)C)C(=O)N2CCC[C@H]2C(=O)O)NC(=O)[C@H](CCC(=O)O)NC(=O)CNC(=O)[C@H]([C@@H](C)O)NC(=O)[C@H](CCC(=O)O)NC(=O)[C@@H]2CCCN2C(=O)[C@H](CC(=O)O)NC1=O [Example 36, {[Stearyl-βAla-Leu-Gln-Cys(&^1)-Asp-Pro-Glu-Thr-Gly-Glu-Cys(&^2)-Leu-Pro-OH][&^1(naphthalene)2,3-diyldimethylene&^2]}] ({Stearoyl-βAla}-LQCDPETGECLP-OH; linker 3-10 via X2)	1 to 100
CC(C)C[C@H](NC(=O)[C@@H]1CSCc2cccc(c2)CSC[C@H](NC(=O)[C@H](CCC(N)=O)NC(=O)[C@@H](N)CC(C)C)C(=O)N[C@@H](CC(=O)O)C(=O)N[C@@H](C)C(=O)N[C@@H](CCC(=O)O)C(=O)N[C@@H]([C@@H](C)O)C(=O)NCC(=O)N[C@@H](CCC(=O)O)C(=O)N1)C(=O)N1CCC[C@H]1C(=O)O [Example 14, {[H-Leu-Gln-Cys(&^1)-Asp-Ala-Glu-Thr-Gly-Glu-Cys(&^2)-Leu-Pro-OH][&^1(1,3-phenylenediyl)dimethylene&^2]}] (H-LQCDAETGECLP-OH; linker 3-10 via mXylylene)	< 1
CCCCCCCCCCCCCCCCCC(=O)NCCC(=O)N[C@@H](CC(C)C)C(=O)N[C@@H](CCC(N)=O)C(=O)N[C@H]1CSCc2nc3ccccc3nc2CSC[C@@H](C(=O)N[C@@H](CC(C)C)C(=O)N2CCC[C@H]2C(N)=O)NC(=O)[C@H](CCC(=O)O)NC(=O)CNC(=O)[C@H]([C@@H](C)O)NC(=O)[C@H](CCC(=O)O)NC(=O)[C@@H]2CCCN2C(=O)[C@H](CC(=O)O)NC1=O [Example 61, {[Stearyl-βAla-Leu-Gln-Cys(&^1)-Asp-Pro-Glu-Thr-Gly-Glu-Cys(&^2)-Leu-Pro-NH2][&^1(quinoxaline)2,3-diyldimethylene&^2]}] ({Stearoyl-βAla}-LQCDPETGECLP-NH2; linker 3-10 via X6)	1 to 100
Cc1cc(C)c2c(C)c1CSC[C@@H](C(=O)N[C@@H](CC(C)C)C(=O)N[C@@H](CC(C)C)C(=O)NCCC(=O)N[C@@H](CCCNC(=N)N)C(=O)N[C@@H](CCCCN)C(=O)N[C@@H](CCCCN)C(=O)N[C@@H](CCCNC(=N)N)C(=O)N[C@@H](CCCNC(=N)N)C(=O)N[C@@H](CCC(N)=O)C(=O)N[C@@H](CCCNC(=N)N)C(=O)N[C@@H](CCCNC(=N)N)C(=O)N[C@@H](CCCNC(=N)N)C(N)=O)NC(=O)[C@H](CCC(=O)O)NC(=O)CNC(=O)[C@H]([C@@H](C)O)NC(=O)[C@H](CCC(=O)O)NC(=O)[C@@H]1CCCN1C(=O)[C@H](CC(=O)O)NC(=O)[C@@H](NC(=O)[C@H](CC(C)C)NC(=O)[C@@H](N)CC(C)C)CSC2 [Example 59]	< 1
